Results published in US20150337351A1, “METHODS OF MICROORGANISM IMMOBILIZATION” (priority 2014, published 2015).

How the values were obtained:
Type in all cases: cell-based
[1] = system: Pseudomonas aeruginosa IHMA 519749 (Paer); assay: Biosensor mixed species diffusion assay (immobilized cells, microscopic detection), growth of resistant strain; conditions: for Paer growth?: MEM 4 (4 μg/mL), MHA 0.850% agar, 4 hours
Procedure: (§1) A mixed species diffusion variation of Hodge test using a biosensor with immobilized cells and microscopic detection was performed using the same bacterial strains. Heavy suspensions of Ecol and Paer were prepared in L-histidine buffer from fresh overnight blood agar plates. Heavy suspensions were diluted in normal saline to produce 0.5 McFarland suspensions, noting the volumes of each suspension required and using the same volumes to produce 10^8 cfu/mL suspensions of each strain in L-histidine. These suspensions were further diluted to create […] and 2×10^5 cfu/mL suspensions for heavy and moderate density working samples. The working samples were then diluted 1:1 in 2 mM L-DOPA for EKC.
(§2) The strains were next introduced to a biosensor for EKC, immobilization, and detection. Paer suspensions were loaded first, placing 5 uL in the exit port side (to maintain the resistant Paer isolate in one half of each channel) of each biosensor flowcell channel to cover one half of the flowcell. Six flowcells were loaded with each concentration. EKC was performed for 5 minutes at 1.5V, and then all flowcells were washed with two aliquots of 160 μL 1 mM L-DOPA (from the entry port). Ecol suspensions were next loaded, introducing 20 μL of cells suspension from the entry port to cover the full flowcell. Six flowcells were loaded with each concentration. EKC was performed for 5 minutes at 1.5V, and all flowcells washed with 160 μL of 1/10 MHB. The manner in which the cells were introduced and captures created a site comprising Ecol cells that were distal from any Paer cells (i.e., on the entry port side of the flowcell), as well as Ecol cells that were proximal to the Paer cells (i.e., on the exit port side of the flowcell).
(§3) Antibiotic media were prepared for immobilization and inhibition testing as follows. […] An immobilization medium source plate was prepared in the detection system and maintained at 45° C. The source plate wells were loaded with 20 μL of the 10× stocks and MHB without antibiotic for growth controls. The sample cassette was placed in the detection system and maintained at 40° C. A 180 uL volume of 0.944% MHA was added to each well of the source plate and mixed, and 100 uL of pre-immobilization immobilizing medium (with an agar concentration of 0.850%) was withdrawn and introduced to a flowcell in accordance with the experimental design. The loaded biosensor was allowed to equilibrate for 5 minutes, and was then removed and cooled for 5 minutes to induce the agar immobilizing agent to change to solid phase. The flowcell ports were then sealed, and growth, imaging, and analysis were performed, with examination of each flowcell for growth of Paer, examination of the distal portion of each flowcell for growth of Ecol in the absence of Paer (distal sensitivity), and examination of the proximal portion of each flowcell for growth of Ecol in the presence of Paer (proximal resistance), indicative of a positive mixed species resistance due to diffusion of metallo-beta-lactamase.
(§4) In order to test for enzyme-mediated cross-species resistance effects, a method for was devised to test a sensitive strain, Escherichia coli ATCC 25922 (Ecol), in the presence of a resistant strain, Pseudomonas aeruginosa IHMA 519749 (Paer) in the immobilized format. The method involved first immobilizing the resistant strain on the surface of a portion of each test flowcell of the cassette (approximately half) and then immobilizing the sensitive (sentinel) strain on the surface of the full flowcell including the area containing the resistant strain. This strategy provides an internal control for treatment effects on the sentinel strain in an area far from the resistant strain along with an area where close-field effects can be observed in the same flowcell. […]

[2] = system: Escherichia coli ATCC 25922 (Ecol); assay: Biosensor mixed species diffusion assay (immobilized cells, microscopic detection), growth of sentinel strain; conditions: for Mixed species resistance factor diffusion? / Ecol growth in distal site? / Ecol growth in proximal site?: MEM 4 (4 μg/mL); for Ecol growth in distal site?: distal from Paer; for Ecol growth in proximal site?: proximal to Paer
Procedure: as §1, §2, §3, §4

[3] = system: Staphylococcus aureus (SA); assay: Clone growth of captured, MHA-immobilized cells from simulated blood, darkfield digital microscopy; conditions: 6 μg/mL FOX; 3 hours (0, 60, 120, 180 minutes); 35° C.
Procedure: Simulated blood specimens were used. Simulated blood specimens were produced by spiking SA, PA, and non-target bacilli species isolates into 10 mL volumes of blood from two short-fill CPD blood bank bags. A total of 29 simulated blood samples were produced, each having a microorganism concentration of approximately 5 CFU/mL of bacterial target species, confirmed by quantitative culture. Spiked isolates used to produce the simulated blood samples included 14 Staphylococcus aureus (SA), 3 Pseudomonas aeruginosa (PA), and 12 non-target Gram-negative bacilli species. Twenty additional control samples were produced which contained no spikes. Each sample was diluted with 30 mL of modified tryptic soy broth medium to promote growth, followed by a 4-hour incubation at 35° C. Following the 4-hour incubation period, samples were centrifuged briefly. The resulting microorganism cells pellets were resuspended in an electrokinetic concentration buffer to produce 1 mL samples for introduction into the detection system. Microorganism samples comprising 20 μL aliquots were pipetted into 14 microchannel flowcells. A 5-minute low-voltage electrokinetic capture was performed to concentrate the microorganisms on to a detection surface associated with each flowcell. […] Controls included quantitative culturing, disk diffusion tests for isolate resistance phenotype, and 20 blood samples without spikes.

[4] = Flowcell 9, Ecol 10^6/Paer 10^6
[5] = Flowcell 10, Ecol 10^6/Paer 10^5
[6] = Flowcell 11, Ecol 10^5/Paer 10^6
[7] = Flowcell 12, Ecol 10^5/Paer 10^5
[8] = Flowcell 9, Ecol 10^6/Paer 10^6, 4 hours
[9] = Flowcell 10, Ecol 10^6/Paer 10^5, 4 hours
[10] = Flowcell 11, Ecol 10^5/Paer 10^6, 4 hours
[11] = Flowcell 12, Ecol 10^5/Paer 10^5, 4 hours

C[C@@H](O)[C@H]1C(=O)N2C(C(=O)O)=C(S[C@@H]3CN[C@H](C(=O)N(C)C)C3)[C@H](C)[C@H]12 [MEM, meropenem]
Paer growth? [1, 4]: Yes | Paer growth? [1, 5]: Yes | Paer growth? [1, 6]: Yes | Paer growth? [1, 7]: Yes | Paer growth morphology and rate under antibiotic vs growth control ([1]; MEM at 4 μg/mL, immobilized in MHA, proximal site): same morphology and growth rate as the growth control condition | Mixed species resistance factor diffusion? [2, 4]: No | Ecol growth in distal site? [2, 8]: No | Ecol growth in proximal site? [2, 8]: No | Mixed species resistance factor diffusion? [2, 5]: No | Ecol growth in distal site? [2, 9]: No | Ecol growth in proximal site? [2, 9]: No | Mixed species resistance factor diffusion? [2, 6]: No | Ecol growth in distal site? [2, 10]: No | Ecol growth in proximal site? [2, 10]: No | Mixed species resistance factor diffusion? [2, 7]: No | Ecol growth in distal site? [2, 11]: No | Ecol growth in proximal site? [2, 11]: No | Ecol growth and morphology under antibiotic (time-lapse images) ([2]; MEM at 4 μg/mL, immobilized in MHA, 4 hours): slight growth or elongation of the single cell with later fading and in many colonies complete lysis

CO[C@@]1(NC(=O)Cc2cccs2)C(=O)N2C(C(=O)O)=C(COC(N)=O)CS[C@@H]21 [FOX, cefoxitin]
SA clone growth in immobilizing medium with antibiotic (darkfield images, FIG. 2B) [3]: growth indicating a methicillin-resistant phenotype
